The values that follow come from US10836768B2, “N-acyl-(3-substituted)-(8-substituted)-5,6-dihydro-[1,2,4]triazolo[4,3-a]pyrazines as selective NK-3 receptor antagonists” (OGEDA SA, priority 2013, dated 2020).

Molecules are shown by their SMILES.

This data set can be described thus: Determination of plasma protein binding (equilibrium dialysis). The format is in vitro ADME. The note with it: bound drug fraction to plasma protein; 4 hours at 37° C. The source says:
Determination of Plasma Protein Binding
The pharmacokinetic and pharmacodynamic properties of chemicals/drugs are largely a function of the reversible binding of chemicals to plasma or serum proteins. […] Consequently, the extent of the plasma protein binding (PPB) of a compound influences its action as well as its distribution and elimination.
The determination of plasma protein binding (PPB) of a compound is enabled by equilibrium dialysis, an accepted and standard method for reliable estimation of the non-bound drug fraction in plasma. RED (Rapid Equilibrium Dialysis) device insert is made of two side-by-side chambers separated by an O-ring-sealed vertical cylinder of dialysis membrane (MWCO ˜8,000). […] After 4 hours incubation at 37° C. under shaking, an aliquot is removed from each chamber and analyzed by a LC-MS/MS procedure enables the determination of both free and bound drug.
The “free fraction” may be calculated as 100%−% rPPB (i.e. the complementary percentage of that disclosed in Table 4, corresponding to the drug concentration that is unbound and therefore available to engage biological target and elicit pharmacological activity).
For `Cc1nsc(-c2nnc3n2CCN(C(=O)c2ccc(F)cc2)C3C)n1` (racemic) [Compound 14, (4-fluorophenyl)(8-methyl-3-(3-methyl-1,2,4-thiadiazol-5-yl)-5,6-dihydro-[1,2,4]triazolo[4,3-a]pyrazin-7(8H)-yl)methanone], the “Exposure (% rPPB)” value is listed as 21%. On to `CCC1c2nnc(-c3nc(C)ns3)n2CCN1C(=O)c1ccc(F)cc1` (racemic) [Compound 23, (8-ethyl-3-(3-methyl-1,2,4-thiadiazol-5-yl)-5,6-dihydro-[1,2,4]triazolo[4,3-a]pyrazin-7(8H)-yl)(4-fluorophenyl)methanone], for which the “Exposure (% rPPB)” value stood at 34%. As for `Cc1nsc(-c2nnc3n2CCN(C(=O)c2cc(F)c(F)c(F)c2F)C3C)n1` (racemic) [Compound 31, (8-methyl-3-(3-methyl-1,2,4-thiadiazol-5-yl)-5,6-dihydro-[1,2,4]triazolo[4,3-a]pyrazin-7(8H)-yl)(2,3,4,5-tetrafluorophenyl)methanone], the figure is 31%.

As to `Cc1nsc(-c2nnc3n2CCN(C(=O)c2ccc(F)c(F)c2)C3C)n1` (racemic) [Compound 32], the “Exposure (% rPPB)” value is recorded as 25%. Consider `Cc1nsc(-c2nnc3n2CCN(C(=O)c2ccc(F)c(F)c2F)C3C)n1` (racemic) [Compound 33, (8-methyl-3-(3-methyl-1,2,4-thiadiazol-5-yl)-5,6-dihydro-[1,2,4]triazolo[4,3-a]pyrazin-7(8H)-yl)(2,3,4-trifluorophenyl)methanone], for which the “Exposure (% rPPB)” value was found to be 29%.

Take `Cc1nsc(-c2nnc3n2CCN(C(=O)c2cc(F)c(F)c(F)c2)C3C)n1` (racemic) [Compound 34, (8-methyl-3-(3-methyl-1,2,4-thiadiazol-5-yl)-5,6-dihydro-[1,2,4]triazolo[4,3-a]pyrazin-7(8H)-yl)(3,4,5-trifluorophenyl)methanone]: the “Exposure (% rPPB)” value is recorded as 24%.

Regarding `Cc1nsc(-c2nnc3n2CCN(C(=O)c2ccc(F)c(Cl)c2)C3C)n1` (racemic) [Compound 35, (3-chloro-4-fluorophenyl)(8-methyl-3-(3-methyl-1,2,4-thiadiazol-5-yl)-5,6-dihydro-[1,2,4]triazolo[4,3-a]pyrazin-7(8H)-yl)methanone], the “Exposure (% rPPB)” value came out at 52%. With `Cc1nsc(-c2nnc3n2CCN(C(=O)c2ccc(Cl)c(F)c2)C3C)n1` (racemic) [Compound 36, (4-chloro-3-fluorophenyl)(8-methyl-3-(3-methyl-1,2,4-thiadiazol-5-yl)-5,6-dihydro-[1,2,4]triazolo[4,3-a]pyrazin-7(8H)-yl)methanone] the figure was 60%. With `Cc1nsc(-c2nnc3n2CCN(C(=O)c2ccc(Cl)c(Cl)c2)C3C)n1` (racemic) [Compound 38, (3,4-dichlorophenyl)(8-methyl-3-(3-methyl-1,2,4-thiadiazol-5-yl)-5,6-dihydro-[1,2,4]triazolo[4,3-a]pyrazin-7(8H)-yl)methanone] the figure was 76%; with `CCc1nsc(-c2nnc3n2CCN(C(=O)c2ccc(F)cc2)C3C)n1` (racemic) [Compound 39, (3-(3-ethyl-1,2,4-thiadiazol-5-yl)-8-methyl-5,6-dihydro-[1,2,4]triazolo[4,3-a]pyrazin-7(8H)-yl)(4-fluorophenyl)methanone], 43%; with `CCc1noc(-c2nnc3n2CCN(C(=O)c2ccc(F)cc2)C3C)n1` (racemic) [Compound 40, (3-(3-ethyl-1,2,4-oxadiazol-5-yl)-8-methyl-5,6-dihydro-[1,2,4]triazolo[4,3-a]pyrazin-7(8H)-yl)(4-fluorophenyl)methanone], 24%. In the case of `Cc1nsc(-c2nnc3n2CCN(C(=O)c2ccc(F)c(Cl)c2)[C@@H]3C)n1` [Compound 6, (R)-(3-chloro-4-fluorophenyl)(8-methyl-3-(3-methyl-1,2,4-thiadiazol-5-yl)-5,6-dihydro-[1,2,4]triazolo[4,3-a]pyrazin-7(8H)-yl)methanone], the “Exposure (% rPPB)” value is 53%. For the compound `Cc1nsc(-c2nnc3n2CCN(C(=O)c2cc(F)c(F)c(F)c2)[C@@H]3C)n1` [Compound 7, (R)-(8-methyl-3-(3-methyl-1,2,4-thiadiazol-5-yl)-5,6-dihydro-[1,2,4]triazolo[4,3-a]pyrazin-7(8H)-yl)(3,4,5-trifluorophenyl)methanone], the “Exposure (% rPPB)” value turned out to be 26%. With `Cc1nsc(-c2nnc3n2CCN(C(=O)c2cc(F)c(F)c(F)c2F)[C@@H]3C)n1` [Compound 10, (R)-(8-methyl-3-(3-methyl-1,2,4-thiadiazol-5-yl)-5,6-dihydro-[1,2,4]triazolo[4,3-a]pyrazin-7(8H)-yl)(2,3,4,5-tetrafluorophenyl)methanone] the figure was 30%; with `Cc1nsc(-c2nnc3n2CCN(C(=O)c2cccc(F)c2)[C@@H]3C)n1` [Compound 15, (R)-(3-fluorophenyl)(8-methyl-3-(3-methyl-1,2,4-thiadiazol-5-yl)-5,6-dihydro-[1,2,4]triazolo[4,3-a]pyrazin-7(8H)-yl)methanone], 20%; with `Cc1nsc(-c2nnc3n2CCN(C(=O)c2cccc(Cl)c2)[C@@H]3C)n1` [Compound 16, (R)-(3-chlorophenyl)(8-methyl-3-(3-methyl-1,2,4-thiadiazol-5-yl)-5,6-dihydro-[1,2,4]triazolo[4,3-a]pyrazin-7(8H)-yl)methanone], 36%. As for `Cc1nsc(-c2nnc3n2CCN(C(=O)c2cc(F)cc(F)c2)[C@@H]3C)n1` [Compound 17, (R)-(3,5-difluorophenyl)(8-methyl-3-(3-methyl-1,2,4-thiadiazol-5-yl)-5,6-dihydro-[1,2,4]triazolo[4,3-a]pyrazin-7(8H)-yl)methanone], the figure is 24%; as for `Cc1nsc(-c2nnc3n2CCN(C(=O)c2ccc(F)cc2F)[C@@H]3C)n1` [Compound 18, (R)-(2,4-difluorophenyl)(8-methyl-3-(3-methyl-1,2,4-thiadiazol-5-yl)-5,6-dihydro-[1,2,4]triazolo[4,3-a]pyrazin-7(8H)-yl)methanone], 23%; as for `Cc1ccc(C(=O)N2CCn3c(-c4nc(C)ns4)nnc3[C@H]2C)cc1` [Compound 19, (R)-(8-methyl-3-(3-methyl-1,2,4-thiadiazol-5-yl)-5,6-dihydro-[1,2,4]triazolo[4,3-a]pyrazin-7(8H)-yl)(p-tolyl)methanone], 51%. As for `Cc1nsc(-c2nnc3n2CCN(C(=O)c2ccc(C(F)(F)F)cc2)[C@@H]3C)n1` [Compound 21, (R)-(8-methyl-3-(3-methyl-1,2,4-thiadiazol-5-yl)-5,6-dihydro-[1,2,4]triazolo[4,3-a]pyrazin-7(8H)-yl)(4-(trifluoromethyl)phenyl) methanone], the “Exposure (% rPPB)” value is reported as 38%. Regarding `CC[C@@H]1c2nnc(-c3nc(C)ns3)n2CCN1C(=O)c1ccc(F)cc1` [Compound 22, (R)-(8-ethyl-3-(3-methyl-1,2,4-thiadiazol-5-yl)-5,6-dihydro-[1,2,4]triazolo[4,3-a]pyrazin-7(8H)-yl)(4-fluorophenyl)methanone], the “Exposure (% rPPB)” value came out at 27%. As for `CCC[C@@H]1c2nnc(-c3nc(C)ns3)n2CCN1C(=O)c1ccc(F)cc1` [Compound 24, (R)-(4-fluorophenyl)(3-(3-methyl-1,2,4-thiadiazol-5-yl)-8-propyl-5,6-dihydro-[1,2,4]triazolo[4,3-a]pyrazin-7(8H)-yl)methanone], the figure is 48%.
